Activity calls are given as the source filed them.
Key:
Streptokinase A = molecular target: T1, Streptokinase A (Streptococcus pyogenes serotype M1, UniProt P10520); assay: S. pyogenes streptokinase expression inhibitors, potency, dose response, plasminogen activation absorbance, OD405 (AID 1914); type: functional, Streptococcus pyogenes M1 GAS;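 further: secreted streptokinase activity via plasminogen activation per viability signal from cell pellet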
T1 sequence (P10520 whole entry): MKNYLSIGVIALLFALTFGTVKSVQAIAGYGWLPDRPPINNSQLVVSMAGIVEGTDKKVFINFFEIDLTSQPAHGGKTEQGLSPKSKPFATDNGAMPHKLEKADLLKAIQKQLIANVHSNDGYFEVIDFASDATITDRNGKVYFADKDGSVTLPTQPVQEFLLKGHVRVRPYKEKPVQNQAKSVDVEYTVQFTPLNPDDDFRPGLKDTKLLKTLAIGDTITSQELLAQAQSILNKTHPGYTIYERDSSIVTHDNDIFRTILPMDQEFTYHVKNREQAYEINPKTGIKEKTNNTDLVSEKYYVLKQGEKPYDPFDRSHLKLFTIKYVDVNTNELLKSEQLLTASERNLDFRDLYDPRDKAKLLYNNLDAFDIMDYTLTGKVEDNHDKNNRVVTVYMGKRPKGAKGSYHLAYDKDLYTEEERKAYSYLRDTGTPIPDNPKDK

Streptococcus = assay: Group A Streptococcus viability loss, dose response, counter-screen for streptokinase expression inhibitor project, luminescence, BacTiterGlo (AID 1915); type: functional, organism-based;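 further: potency for reduction of bacterial viability or growth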
[1] = tested on: Streptococcus sp. 'group A'; assay: growth inhibition of control SK(-) GAS strain, dose response, counter-screen for streptokinase expression inhibitor project, luminescence, kanamycin, BacTiterGlo, confirmation (AID 1900); type: functional, organism-based
[2] = inhibitors of intracellular T. cruzi replication, confirmation, NIH3T3 host cells, beta-gal luminescence (AID 2044); type: functional, cell-based;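 further: intracellular parasites grown in NIH/3T3 mouse fibroblasts as host cells; luminescent beta-galactosidase reporter signal from transgenic T. cruzi replicating inside host cells; inhibitors lower the luminescence signal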
[3] = cytotoxicity toward NIH3T3 fibroblasts, dose response, counter-screen, cell-based, ATP luminescence, mouse fibroblasts (AID 2010); type: functional;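 further: cells exposed to compound for about 90 hours before reading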
Cytochrome P450 2C19 = Cytochrome P450 2C19 (Homo sapiens, UniProt P33261); assay: Cytochrome panel assay with activity outcomes. Panel member name: p450-cyp2c19 Compounds with AC50 equal or less than 10 uM are considered active; type: functional
Cytochrome P450 2C19, sequence (P33261 whole entry): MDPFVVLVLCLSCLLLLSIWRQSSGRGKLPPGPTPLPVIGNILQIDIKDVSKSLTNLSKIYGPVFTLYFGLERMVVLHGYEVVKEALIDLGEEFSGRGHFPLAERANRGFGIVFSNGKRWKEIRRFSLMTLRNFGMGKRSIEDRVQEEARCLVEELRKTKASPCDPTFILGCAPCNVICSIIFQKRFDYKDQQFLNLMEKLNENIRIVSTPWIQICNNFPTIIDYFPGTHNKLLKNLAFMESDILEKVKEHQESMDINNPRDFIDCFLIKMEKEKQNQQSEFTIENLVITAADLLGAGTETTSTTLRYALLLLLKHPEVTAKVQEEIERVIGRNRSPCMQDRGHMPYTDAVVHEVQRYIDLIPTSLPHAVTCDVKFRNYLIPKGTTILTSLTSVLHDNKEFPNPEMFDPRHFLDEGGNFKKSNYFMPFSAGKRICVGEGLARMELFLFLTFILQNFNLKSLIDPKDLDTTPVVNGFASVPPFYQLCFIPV

[4] = molecular target: T2, Replicative DNA helicase DnaB (Mycobacterium tuberculosis, UniProt P9WMR3); assay: DnaB intein splicing inhibitors, dose response, biochemical, cell-free fluorescence (AID 449749); type: functional
T2 sequence (P9WMR3 whole entry): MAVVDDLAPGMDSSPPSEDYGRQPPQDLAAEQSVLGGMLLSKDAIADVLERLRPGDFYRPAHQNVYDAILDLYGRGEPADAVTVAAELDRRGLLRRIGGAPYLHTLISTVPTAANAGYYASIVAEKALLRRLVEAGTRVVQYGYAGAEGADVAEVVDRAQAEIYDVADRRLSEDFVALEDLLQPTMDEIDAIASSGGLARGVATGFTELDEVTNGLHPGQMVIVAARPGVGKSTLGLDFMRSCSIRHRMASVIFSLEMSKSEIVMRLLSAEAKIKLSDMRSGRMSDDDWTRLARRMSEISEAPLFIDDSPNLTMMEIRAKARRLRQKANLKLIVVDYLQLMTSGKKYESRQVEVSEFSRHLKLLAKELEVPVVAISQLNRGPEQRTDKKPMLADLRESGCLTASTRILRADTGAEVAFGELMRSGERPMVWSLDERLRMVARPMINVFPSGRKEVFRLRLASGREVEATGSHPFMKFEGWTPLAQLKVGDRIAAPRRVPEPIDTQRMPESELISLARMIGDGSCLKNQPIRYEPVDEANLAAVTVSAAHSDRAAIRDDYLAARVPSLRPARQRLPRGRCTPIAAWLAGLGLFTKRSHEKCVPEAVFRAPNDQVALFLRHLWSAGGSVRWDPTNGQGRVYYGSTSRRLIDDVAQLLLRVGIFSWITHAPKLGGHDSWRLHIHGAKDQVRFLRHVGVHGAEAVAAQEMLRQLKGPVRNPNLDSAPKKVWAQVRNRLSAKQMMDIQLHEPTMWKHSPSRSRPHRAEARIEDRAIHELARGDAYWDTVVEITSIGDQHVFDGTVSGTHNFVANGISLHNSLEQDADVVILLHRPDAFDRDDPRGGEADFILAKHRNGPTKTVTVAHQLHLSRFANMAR

Protein RecA = molecular target: T3, Protein RecA (Mycobacterium tuberculosis, UniProt P9WHJ3); assay: Fluorescence Cell-Free Homogeneous Dose Retest to Identify Inhibitors of RecA-Intein Splicing Activity. [Related pubchem assays (depositor defined):AID2097, AID2223, AID489010, AID492950]; type: functional
T3 sequence (P9WHJ3 whole entry): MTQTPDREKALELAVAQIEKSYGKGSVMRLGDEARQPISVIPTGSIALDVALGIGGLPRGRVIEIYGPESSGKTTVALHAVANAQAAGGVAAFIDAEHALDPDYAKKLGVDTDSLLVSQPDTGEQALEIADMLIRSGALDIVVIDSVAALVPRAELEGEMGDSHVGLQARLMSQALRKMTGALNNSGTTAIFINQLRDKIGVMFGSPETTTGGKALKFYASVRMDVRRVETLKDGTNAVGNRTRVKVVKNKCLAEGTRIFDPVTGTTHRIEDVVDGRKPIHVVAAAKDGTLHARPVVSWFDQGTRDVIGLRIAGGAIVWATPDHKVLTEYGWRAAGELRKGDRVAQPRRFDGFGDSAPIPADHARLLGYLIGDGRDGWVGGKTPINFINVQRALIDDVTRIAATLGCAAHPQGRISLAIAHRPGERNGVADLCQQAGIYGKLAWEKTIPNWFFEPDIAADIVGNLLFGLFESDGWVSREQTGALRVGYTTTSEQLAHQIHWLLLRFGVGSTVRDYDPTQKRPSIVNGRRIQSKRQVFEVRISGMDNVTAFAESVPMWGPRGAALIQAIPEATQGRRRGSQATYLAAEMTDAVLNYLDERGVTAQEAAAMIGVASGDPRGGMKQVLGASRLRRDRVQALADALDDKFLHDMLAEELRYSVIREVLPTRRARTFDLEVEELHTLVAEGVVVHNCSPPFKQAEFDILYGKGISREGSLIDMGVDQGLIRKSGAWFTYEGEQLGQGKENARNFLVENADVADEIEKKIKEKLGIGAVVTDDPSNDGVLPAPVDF

Row | SMILES | EC50 (Streptokinase A) | EC50 (Streptococcus) | EC50 [1] | EC50 [2] | EC50 [3] | further results
1 | CCOc1ccc(C(=O)NC(=S)Nc2ccc(N3CCOCC3)c(Cl)c2)cc1[N+](=O)[O-] | > 150 µM (not active) | 21.4 µM (active) | 0.724 µM (active) | – | – | –
2 | CN(CCc1ccccn1)C1CCCN(S(=O)(=O)c2ccc(F)c(Cl)c2)C1 (stereo unspecified) | – | – | – | 1.2 µM (active) | > 60 µM (not active) | –
3 | C[C@@H](C(=O)NCCc1ccccc1)N1C(=O)N2CCc3c([nH]c4ccccc34)[C@@]2(C)C1=O | – | – | – | 2 µM (active) | > 60 µM (not active) | –
4 | Cc1cc(=O)oc2cc(O)c(CN(C)CC(=O)O)cc12 | – | – | – | – | – | AC50 (Cytochrome P450 2C19): inconclusive
5 | Cc1nn2c(O)cc(C(C)(C)C)nc2c1-c1ccccc1 | – | 6.75 µM (active) | 2.71 µM (active) | 1.85 µM (active) | 4.17 µM (active) | –
6 | NC(=O)NC(=O)CSc1nc2cc([N+](=O)[O-])ccc2n1-c1cccc(C(F)(F)F)c1 | > 150 µM (not active) | 19.2 µM (active) | 0.301 µM (active) | – | – | –
7 | Cc1c(C(=O)Nc2ccc(-c3nnc4n3CCCCC4)cc2)oc2ccc(Br)cc12 | – | – | – | 1.18 µM (active) | > 60 µM (not active) | –
8 | CC(=O)c1ccc(NC(=O)CN2C(=O)/C(=C/C=C/c3ccccc3)SC2=S)cc1 | > 150 µM (not active) | > 150 µM (not active) | – | – | – | –
9 | CC(=O)N1c2ccc(S(=O)(=O)N3CCC(C(=O)Nc4cc(C)ccn4)CC3)cc2CC1C (stereo unspecified) | > 150 µM (not active) | > 150 µM (not active) | > 150 µM (not active) | – | – | –
10 | CC(C)C(=O)NC(=S)Nc1ccccc1N1CCN(C(=O)c2ccc(Cl)cc2)CC1 | – | – | – | 1.47 µM (active) | > 60 µM (not active) | –
11 | C=CCN1C(=O)NC(=O)/C(=C(/C)Nc2ccc(N(CC)CC)cc2)C1=O | > 150 µM (not active) | 14 µM (active) | 5.15 µM (active) | – | – | –
12 | CCCCN1C(=O)NC(=O)/C(=C(/CC)Nc2ccc3c(c2)CCC3)C1=O | 74.1 µM (active) | > 150 µM (not active) | 15.9 µM (active) | – | – | –
13 | CCc1ccc(N(CC(=O)NC2CC2)S(=O)(=O)c2ccc(C)cc2)cc1 | > 150 µM (not active) | > 150 µM (not active) | > 150 µM (not active) | – | – | –
14 | CCn1c(S)nnc1CCNC(=O)c1ccc(Cl)cc1Cl | – | – | – | – | – | AC50 (Cytochrome P450 2C19; read-out: AC50): 10 µM (inconclusive)
15 | CCCCNc1c(-c2ccc(-c3ccc(C(C)=O)cc3)c(OC)c2)nc2cnccn12 | 114 µM (inconclusive) | 21.1 µM (active) | 5.22 µM (active) | – | – | –
16 | CC(C)Cc1nnc(NC(=O)c2ccc([N+](=O)[O-])cc2)s1 | – | – | – | – | – | AC50 (Cytochrome P450 2C19): inconclusive
17 | CC1CCN(CC(O)COCCC23CC4CC(CC(C4)C2)C3)CC1 (stereo unspecified) | – | – | – | 0.164 µM (active) | > 60 µM (not active) | –
18 | COC(=O)[C@@]1(Cc2ccc(F)cc2)[C@H]2c3cc(C(=O)N(C)C)n(CCSCCO)c3C[C@H]2CN1C(=O)c1ccccc1 | – | – | – | – | – | AC50 (Cytochrome P450 2C19; read-out: AC50): 39.8 µM (inconclusive)
19 | O=C(C[n+]1ccc2ccccc2c1)Nc1cc(C(F)(F)F)ccc1Cl | > 150 µM (not active) | > 150 µM (not active) | > 150 µM (not active) | – | – | –
20 | CC(Oc1ccccc1)C(=O)NC1C(=O)N2C1SC(C)(C)C2C(=O)O (stereo unspecified) | – | 0.124 µM (active) | 0.11 µM (active) | – | – | –

Row | SMILES | EC50 (Streptokinase A) | EC50 (Streptococcus) | EC50 [1] | EC50 [2] | EC50 [3] | further results
21 | Cc1ccc(S(=O)(=O)Cn2nnnc2C(C(C)C)N2CCN(c3nc4ccccc4s3)CC2)cc1 (stereo unspecified) | – | – | – | 0.532 µM (active) | > 60 µM (inconclusive) | –
22 | Cc1onc(-c2ccccc2)c1C(=O)NNC(=S)NC(=O)/C=C/c1cccs1 | – | 2.02 µM (active) | 1.02 µM (active) | – | – | –
23 | CCOC(=O)c1c(NC(=O)CSc2nnnn2-c2ccccc2)sc2c1CC(C)(C)NC2(C)C | – | – | – | 0.831 µM (active) | 8.34 µM (active) | –
24 | Cc1sc(NC(=O)c2ccco2)c(CN2CCN(Cc3ccccc3)CC2)c1C | – | – | – | 3.39 µM (active) | > 30 µM (not active) | –
25 | COc1ccc(CNc2ccc(Cl)cc2)cc1Cn1ccnc1 | – | – | – | 0.114 µM (active) | > 60 µM (not active) | –
26 | COc1ccc(NS(=O)(=O)c2cccc(NC(=O)c3cnccn3)c2)cc1Br | – | – | – | 1.79 µM (active) | > 60 µM (not active) | –
27 | N#Cc1c(NC(=O)CSc2nnc(Cc3ccccc3)[nH]2)oc(-c2ccccc2)c1-c1ccccc1 | 4.54 µM (active) | – | – | – | – | –
28 | COCC1CCN(Cc2c[nH]nc2-c2cc3ccccc3o2)C1 (stereo unspecified) | – | – | – | 0.76 µM (active) | > 60 µM (not active) | –
29 | COC(=O)c1ccc(-c2nc(CN3CCN(Cc4cccc(C)c4)CC3)c(C)o2)cc1 | – | – | – | 0.164 µM (active) | > 60 µM (not active) | –
30 | O=C(Nc1nc(N2C(=O)c3ccccc3C2=O)n(-c2ccccc2)n1)c1ccc(Cl)cc1 | > 150 µM (not active) | 22.9 µM (active) | 8.84 µM (active) | – | – | –
31 | CC(C)(C)c1ccc(C(=O)Nc2ccc(F)cc2)s1 | > 150 µM (not active) | > 150 µM (not active) | > 150 µM (not active) | – | – | –
32 | O=C(Nc1ccc2c(c1)N(S(=O)(=O)c1cccs1)CCC2)c1c(F)cccc1Cl | > 150 µM (not active) | > 150 µM (not active) | > 150 µM (not active) | – | – | –
33 | O=C(NC1CCN(Cc2ccccc2)CC1)c1ccccc1 | – | – | – | 0.721 µM (active) | 10.8 µM (active) | –
34 | CN1CCN(CC(O)COC(c2ccccc2)c2ccccc2)CC1 (stereo unspecified) | – | – | – | 1.3 µM (active) | > 30 µM (not active) | –
35 | COc1ccc(NC(=O)Nc2c(O)ccc3ccccc23)cc1 | – | – | – | – | – | AC50 [4]: > 380 µM (inactive); EC50 (Protein RecA): 1.49 µM (active)
36 | C/C(=N\NC(=O)Cc1ccc(Cl)cc1)c1ccccc1O | – | – | – | 2.79 µM (active) | 10.8 µM (active) | –
37 | COc1cc(/C=N/NC(=O)c2nnn(-c3nonc3N)c2C(C)C)ccc1OCc1ccc(F)cc1 | 13.4 µM (active) | 47 µM (active) | 8.61 µM (active) | – | – | –
38 | Cc1nn(Cc2ccc(Cl)cc2Cl)c(Cl)c1/C=N/NC(=O)CNc1cccc(C(F)(F)F)c1 | – | – | – | 2.62 µM (active) | > 60 µM (inconclusive) | –
39 | C/C(CC(=O)Nc1ccccn1)=N\NC(=O)C(=O)Nc1cccc(Cl)c1C | – | – | – | – | – | AC50 (Cytochrome P450 2C19; read-out: AC50): 11.2 µM (inconclusive)
